Assay results reported in ChEMBL document CHEMBL1201862, “PubChem BioAssay data set” (2004).
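Tested at 5 concentrations; 48 h exposure; 96-well plates; endpoints linearly interpolated, else capped at highest concentration. GI50 is the concentration that inhibits growth by half.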 Active and inactive are the calls of the source. Cut-off read from the data, not from the text of the source: active = GI50 up to about 1.1 µM and inactive = higher.

What was measured:
Assay in all cases: DTP human tumour cell line panel, 48 h
RPMI-8226 = tested on: RPMI-8226
IGROV-1 = tested on: IGROV-1
Hs-578T = tested on: Hs-578T
NCI-H460 = tested on: NCI-H460
RXF 393 = tested on: RXF 393
HT-29 = tested on: HT-29
SK-MEL-5 = tested on: SK-MEL-5
SNB-19 = tested on: SNB-19
U-251 = tested on: U-251
OVCAR-8 = tested on: OVCAR-8
MDA-MB-435 = tested on: MDA-MB-435
DU-145 = tested on: DU-145
NCI-H522 = tested on: NCI-H522
SW-620 = tested on: SW-620
SK-OV-3 = tested on: SK-OV-3
HCC 2998 = tested on: HCC 2998
NCI-H226 = tested on: NCI-H226
NCI-H23 = tested on: NCI-H23
EKVX = tested on: EKVX

Measured: GI50

O=C(Oc1cc(=O)c(OC(=O)c2ccccc2)co1)c1ccccc1
inactive: RPMI-8226 47.4 µM | IGROV-1 > 100 µM | Hs-578T 93.8 µM | NCI-H460 > 100 µM | RXF 393 72.9 µM | HT-29 84.5 µM | SK-MEL-5 > 100 µM | SNB-19 92.7 µM | U-251 64.9 µM | OVCAR-8 > 100 µM | MDA-MB-435 > 100 µM | DU-145 > 100 µM | NCI-H522 26.9 µM | SW-620 > 100 µM | SK-OV-3 > 100 µM | HCC 2998 > 100 µM | NCI-H226 85.3 µM | NCI-H23 > 100 µM

CCCC(=O)NC(Nc1ccc(S(=O)(=O)Nc2cc(C)on2)cc1)(C(=O)OCC)C(F)(F)F (stereo not given)
inactive: RPMI-8226 > 100 µM | IGROV-1 > 100 µM | Hs-578T > 100 µM | RXF 393 > 100 µM | HT-29 > 100 µM | SK-MEL-5 > 100 µM | SNB-19 > 100 µM | U-251 > 100 µM | OVCAR-8 > 100 µM | MDA-MB-435 > 100 µM | DU-145 > 100 µM | NCI-H522 > 100 µM | SW-620 > 100 µM | SK-OV-3 > 100 µM | HCC 2998 > 100 µM | NCI-H226 > 100 µM | NCI-H23 > 100 µM | EKVX > 100 µM

C=C(C)[C@@H]1CCC2=C[C@@H](OC2=O)[C@@H](C(=C)C)C2=CC(C(=O)O)=C(C1)O2
inactive: RPMI-8226 40.6 µM | IGROV-1 > 100 µM | Hs-578T > 100 µM | RXF 393 > 100 µM | HT-29 > 100 µM | SK-MEL-5 > 100 µM | SNB-19 > 100 µM | OVCAR-8 > 100 µM | MDA-MB-435 > 100 µM | DU-145 > 100 µM | NCI-H522 > 100 µM | SW-620 > 100 µM | SK-OV-3 > 100 µM | HCC 2998 > 100 µM | NCI-H226 > 100 µM | NCI-H23 > 100 µM | EKVX > 100 µM

N#Cc1c(NC(=S)NCc2ccccc2)sc2c1CCN(N1CCc3c(sc(NC(=S)NCc4ccccc4)c3C#N)C1)C2
inactive: IGROV-1 > 100 µM | Hs-578T > 100 µM | NCI-H460 > 100 µM | RXF 393 > 100 µM | HT-29 > 100 µM | SK-MEL-5 > 100 µM | SNB-19 > 100 µM | U-251 > 100 µM | OVCAR-8 > 100 µM | MDA-MB-435 > 100 µM | DU-145 > 100 µM | NCI-H522 > 100 µM | SW-620 > 100 µM | SK-OV-3 > 100 µM | HCC 2998 > 100 µM | NCI-H226 > 100 µM | NCI-H23 > 100 µM | EKVX > 100 µM

O=C1[C@@H](O)[C@@H]2CCCC[C@@]23CCCN13
inactive: RPMI-8226 > 100 µM | IGROV-1 > 100 µM | Hs-578T > 100 µM | NCI-H460 > 100 µM | RXF 393 > 100 µM | HT-29 > 100 µM | SK-MEL-5 > 100 µM | SNB-19 > 100 µM | U-251 > 100 µM | OVCAR-8 > 100 µM | MDA-MB-435 > 100 µM | DU-145 > 100 µM | NCI-H522 > 100 µM | SK-OV-3 > 100 µM | HCC 2998 > 100 µM | NCI-H226 > 100 µM | NCI-H23 > 100 µM | EKVX > 100 µM

CC(C)(C)OC(=O)N1C[C@H](CC(=O)OCc2ccccc2)C[C@H]1C(=O)OCC(Cl)(Cl)Cl
inactive: Hs-578T 8.69 µM | NCI-H460 11.2 µM | RXF 393 6.15 µM | HT-29 4.7 µM | SK-MEL-5 2.24 µM | SNB-19 7.74 µM | U-251 2.56 µM | OVCAR-8 6.07 µM | MDA-MB-435 5.31 µM | DU-145 > 50 µM | NCI-H522 1.62 µM | SW-620 11.4 µM | SK-OV-3 > 50 µM | HCC 2998 10.7 µM | NCI-H226 3.55 µM | NCI-H23 4.49 µM | EKVX 2.78 µM

Cc1ccc(S(=O)(=O)N2CC3OC(C)(C)OC3C2CO)cc1 (stereo not given)
inactive: RPMI-8226 > 100 µM | IGROV-1 > 100 µM | Hs-578T > 100 µM | NCI-H460 > 100 µM | RXF 393 > 100 µM | HT-29 > 100 µM | SK-MEL-5 > 100 µM | U-251 > 100 µM | OVCAR-8 > 100 µM | MDA-MB-435 > 100 µM | DU-145 > 100 µM | NCI-H522 > 100 µM | SW-620 > 100 µM | SK-OV-3 > 100 µM | HCC 2998 > 100 µM | NCI-H226 > 100 µM

CCOC(=O)N1N(c2ccccc2)C(=O)C1(c1ccccc1)c1ccccc1
inactive: RPMI-8226 14.7 µM | IGROV-1 > 100 µM | Hs-578T > 100 µM | RXF 393 28.8 µM | HT-29 22 µM | SK-MEL-5 33.8 µM | SNB-19 > 100 µM | U-251 89.1 µM | OVCAR-8 > 100 µM | MDA-MB-435 > 100 µM | DU-145 > 100 µM | NCI-H522 44.8 µM | SW-620 > 100 µM | SK-OV-3 > 100 µM | HCC 2998 > 100 µM | NCI-H226 99.1 µM | NCI-H23 > 100 µM | EKVX 48.1 µM
